{
  "source": "paper PMC6504561",
  "about": "(Science signaling, 2017)",
  "key": {"ARHGEF2": {"tested_on": "ARHGEF2", "conditions": "cited from earlier work; for effect on ARHGEF2 release from microtubules and RHOA activation: disruption of polymerized microtubules; for effect on ARHGEF2 activation: GPCR ligands"}, "14-3-3": {"molecular_target": "T1, 14-3-3 (Mus musculus, UniProt P63101)", "T1 sequence (P63101 1-245)": "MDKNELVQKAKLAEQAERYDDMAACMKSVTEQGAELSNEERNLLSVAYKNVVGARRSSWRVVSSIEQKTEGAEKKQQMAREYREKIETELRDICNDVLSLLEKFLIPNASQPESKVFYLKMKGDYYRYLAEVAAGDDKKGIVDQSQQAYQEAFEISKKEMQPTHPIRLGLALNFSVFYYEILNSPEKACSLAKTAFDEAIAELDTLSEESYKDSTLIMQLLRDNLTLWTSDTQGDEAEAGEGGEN", "test": "Microscale thermophoresis", "assay_type": "binding, murine", "conditions": "MST; peptides at 100 nM; GST-14-3-3 serial dilutions 195 μM to 2 nM; 20 mM HEPES pH 7.4, 150 mM NaCl, 1 mM DTT, 0.05 % Tween20; three independent experiments"}, "[1]": {"tested_on": "ARHGEF2 Ser^151 phosphorylation", "test": "Western blot of ARHGEF2 Ser^151 phosphorylation in treated HEK293T cells", "assay_type": "cell-based", "conditions": "1mM for 6 hours, normalized with total ARHGEF2, three independent experiments"}},
  "data": [
    {"compound": "COC(=O)Nc1nc2ccc(C(=O)c3cccs3)cc2[nH]1", "note": "[Nocodazol]", "values": [
      {"measurement": "effect on ARHGEF2 release from microtubules and RHOA activation", "setting": "ARHGEF2", "value": "release ARHGEF2 and lead to potent activation of RHOA"}
    ]},
    {"compound": "CC(=O)O[C@H]1C(=O)[C@@]2(C)[C@H]([C@H](OC(=O)c3ccccc3)[C@]3(O)C[C@H](OC(=O)[C@H](O)[C@@H](NC(=O)c4ccccc4)c4ccccc4)C(C)=C1C3(C)C)[C@]1(OC(C)=O)CO[C@@H]1C[C@@H]2O", "note": "[Paclitaxel]", "values": [
      {"measurement": "effect on ARHGEF2 release from microtubules and RHOA activation", "setting": "ARHGEF2", "value": "an effect that can be reversed by the microtubule stabilizing drug Paclitaxel"}
    ]},
    {"compound": "RRPLDPRRR[(p)Ser885]LPAGDA[Lys(FITC)]", "values": [
      {"measurement": "binding to 14-3-3 (in words)", "setting": "14-3-3", "value": "no binding was detected"}
    ]},
    {"compound": "SSLSLAKSV[(p)Ser^151]TTNIAG[Lys(FITC)]", "values": [
      {"measurement": "binding to 14-3-3 (in words)", "setting": "14-3-3", "value": "no binding was detected"}
    ]},
    {"compound": "thrombin", "values": [
      {"measurement": "effect on ARHGEF2 activation", "setting": "ARHGEF2", "value": "trigger activation of ARHGEF2"}
    ]},
    {"compound": "COc1cc2c(c(OC)c1OC)-c1ccc(OC)c(=O)cc1[C@@H](NC(C)=O)CC2", "note": "[Colchicine]", "values": [
      {"measurement": "effect on ARHGEF2 release from microtubules and RHOA activation", "setting": "ARHGEF2", "value": "release ARHGEF2 and lead to potent activation of RHOA"}
    ]},
    {"compound": "lysophosphatidic acid", "values": [
      {"measurement": "effect on ARHGEF2 activation", "setting": "ARHGEF2", "value": "trigger activation of ARHGEF2"}
    ]},
    {"compound": "NC(=O)c1ncn([C@@H]2O[C@H](COP(=O)(O)O)[C@@H](O)[C@H]2O)c1N", "note": "[5-Aminoimidazole-4-carboxamide ribonucleotide]", "values": [
      {"measurement": "ARHGEF2 Ser^151 phosphorylation", "setting": "[1]", "value": "no apparent change in phosphorylation of this residue was observed"}
    ]}
  ]
}
